Measurements from BindingDB's records for doi:10.1016/j.bmc.2020.115644 (Umass Medical School, 2020).
Structures can show the parent of a compound that is named as a salt.

Columns and labels:
NAD(+) hydrolase SARM1 [1] = target: T1, NAD(+) hydrolase SARM1 (Homo sapiens, UniProt Q6SZW1); assay: Inhibition of recombinant human SARM1 TIR domain (561 to 724 residues) expressed in Escherichia coli C43 (DE3) cells lysates using ENAD as substrate preincubated for 20 mins followed by ENAD addition and measured at 15 sec interval for 15 mins
T1 sequence (Q6SZW1 whole entry): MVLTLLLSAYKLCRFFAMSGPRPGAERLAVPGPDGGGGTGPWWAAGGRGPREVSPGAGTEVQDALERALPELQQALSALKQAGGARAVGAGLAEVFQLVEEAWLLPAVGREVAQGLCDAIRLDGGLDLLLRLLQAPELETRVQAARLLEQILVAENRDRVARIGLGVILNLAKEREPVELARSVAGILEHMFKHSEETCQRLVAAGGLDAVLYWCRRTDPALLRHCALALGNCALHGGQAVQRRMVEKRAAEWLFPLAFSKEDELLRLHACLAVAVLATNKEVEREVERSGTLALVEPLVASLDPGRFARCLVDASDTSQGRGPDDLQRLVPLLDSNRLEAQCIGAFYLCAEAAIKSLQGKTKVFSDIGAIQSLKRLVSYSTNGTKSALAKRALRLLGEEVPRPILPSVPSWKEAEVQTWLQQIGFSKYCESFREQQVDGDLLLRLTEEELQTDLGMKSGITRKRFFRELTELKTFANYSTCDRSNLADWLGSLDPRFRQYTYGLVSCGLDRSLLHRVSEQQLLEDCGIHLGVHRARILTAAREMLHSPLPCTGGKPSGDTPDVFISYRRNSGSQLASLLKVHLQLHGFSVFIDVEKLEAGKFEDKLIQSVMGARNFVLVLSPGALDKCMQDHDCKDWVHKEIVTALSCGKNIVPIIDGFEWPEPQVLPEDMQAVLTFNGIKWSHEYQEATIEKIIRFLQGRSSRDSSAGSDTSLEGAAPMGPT

NAD(+) hydrolase SARM1 [2] = target: T1, NAD(+) hydrolase SARM1; assay: Noncompetitive inhibition of recombinant human SARM1 TIR domain (561 to 724 residues) expressed in Escherichia coli C43 (DE3) cells lysates assessed as EADPR formation using ENAD as substrate preincubated for 20 mins followed by ENAD addition and measured at 15 sec interval for 1 hr

IC50 (NAD(+) hydrolase SARM1 [1]) [µM]	Ki (NAD(+) hydrolase SARM1 [2]) [µM]	SMILES
145	280	C[C@H]1c2cccc(O)c2C(=O)C2=C(O)[C@]3(O)C(=O)C(C(N)=O)=C(O)[C@@H](N(C)C)[C@@H]3[C@@H](O)[C@@H]21 [DOXYCYCLINE HYDROCHLORIDE]
145	–	Nc1ccc(/N=N/c2ccccc2)c(N)n1 [NC 150]
